Results reported in patent EP1043331A1, “BONE-RESORPTIVE CYTOKINE INHIBITOR CONTAINING DIENOGEST AS THE ACTIVE INGREDIENT” (MOCHIDA PHARMACEUTICAL CO., LTD., priority 1997, dated 1999).
Marks after values point to notes of the source that are not given here.

Tests used:
Format in all cases: cell-based, mouse
[1] = system: TNF-α; assay: TNF-α release from murine osteoblast (culture supernatant cytokine assay); details: 24 hours culture
Procedure: According to the method by Johansen, et al. (Journal Bone and Mineral Research, Vol.7, pp.501-509, 1992), osteoblast was collected from the femoral bones of a female SLC : ICR mouse of age 15 weeks. Under anesthesia with pentobarbital sodium (25 mg/kg, intraperitoneal administration), postcava was cut to bleed and kill the animal to death. Then, bilateral femoral bones were resected. This bone was cut with a pair of bone scissors, to remove the bone marrow with a micro-loop. The inner face of the bone was rubbed off with a sharp blade. The resulting matter was agitated in a 10 % collagenase solution (Nitta gelatin) at 37 °C for 20 minutes, and to the resulting mixture was added a culture medium (an MEM culture medium supplemented with 10 % charcoal-treated bovine fetal serum; manufactured by Nissui Pharmaceutical, Co. Ltd.) prior to centrifugation (300×g, 5 minutes and 20 °C). The resulting cells were dispersed in a fresh culture medium and then inoculated on a plastic culture dish (diameter of 35 mm, Primaria (Falcon)). At 37 °C in 5 % CO2/95% air, the cells were cultured for 24 hours, and the attached cells were recovered in a 0.25 % trypsin solution to prepare a cell suspension of 1×10^4 cells/ml. Osteoblast was identified by using alkali phosphatase staining as an osteoblast marker. For recovering osteoblast from an animal after ovariectomy, ovariectomy was carried out at age 11 weeks, and the animal was fed for the following 4 weeks, prior to the same treatment.
1×10^4 cells/ml osteoblast suspension (100 µl), a culture medium (890 µl) and a drug solution (10 µl) were added into each well of a plastic 24-well culture plate (Falcon), for culturing at 37 °C in 5 % CO2/95 % air for 24 hours, and then, the resulting culture was centrifuged (300 ×g, 5 minutes, 20°C) to recover the supernatant, which was defined as a cytokine assay sample. The final concentrations of the drug were 10^-11, 10^-10 and 10^-9 M. For experiments, furthermore, three dishes per each group were used.

[2] = system: murine osteoclast; assay: Frequency of occurrence of apoptosis in murine osteoclast; details: 7 days, one hundred cells with two or more nuclei observed, control 4.0
Procedure: By a method according to the report by Takahashi et al. (Endocrinology, Vol.122, pp.1373-1382, 1988), osteoclast was prepared. More specifically, a female SLC:ICR mouse of age 7 weeks was bled and killed to death, under anesthesia with pentobarbital sodium (25 mg/kg, intraperitoneal administration), and from the mouse; her femoral bone was resected. Both the ends were cut, to rinse off the […] into α-MEM (Gibco) (1 ml). […] 0.5 ml of the cell suspension was inoculated in a 24-well microtiter plate. To the wells was added 100 ng/ml parathyroid hormone (Sigma Chemical Co.) for culturing in 5 % CO2/95 % air at 37 °C for 2 days. […] Herein, three plates were used per one concentration of each drug. […] After rinsing in PBS, the apoptosis cells were detected by using an ApopTagPlus Insitu Apoptosis Detection kit peroxidase (Oncor, Gaithersburg, MD, USA) and a TSA-direct kit (GreenFISH, NEN Life Science Products, Boston, MA). Simultaneously, the smear sample was stained with a 20 µg/ml propidium iodide (Sigma Chemical Co.) solution containing 50 U/ml RNase, at room temperature for 15 minutes, to stain the nucleus. One hundred cells with two or more nuclei were observed under a cofocal laser scanning type fluorescence microscope (MRC-1000, BioRad), to determine the number of apoptosis-positive cells developed: The results are shown in Table 5.

[3] = system: PKA; assay: PKA activity in murine osteoblast (time-resolved fluorometry); details: Fig.2
Procedure: According to the method by Johansen, et al. (Journal Bone and Mineral Research, Vol.7, pp.501-509, 1992), osteoblast was collected from the femoral bones of a female SLC : ICR mouse of age 15 weeks. Under anesthesia with pentobarbital sodium (25 mg/kg, intraperitoneal administration), postcava was cut to bleed and kill the animal to death. Then, bilateral femoral bones were resected. This bone was cut with a pair of bone scissors, to remove the bone marrow with a micro-loop. The inner face of the bone was rubbed off with a sharp blade. The resulting matter was agitated in a 10 % collagenase solution (Nitta gelatin) at 37 °C for 20 minutes, and to the resulting mixture was added a culture medium (an MEM culture medium supplemented with 10 % charcoal-treated bovine fetal serum; manufactured by Nissui Pharmaceutical, Co. Ltd.) prior to centrifugation (300×g, 5 minutes and 20 °C). The resulting cells were dispersed in a fresh culture medium and then inoculated on a plastic culture dish (diameter of 35 mm, Primaria (Falcon)). […] Osteoblast was identified by using alkali phosphatase staining as an osteoblast marker. For recovering osteoblast from an animal after ovariectomy, ovariectomy was carried out at age 11 weeks, and the animal was fed for the following 4 weeks, prior to the same treatment. 1×10^4 cells/ml osteoblast suspension (100 µl), a culture medium (890 µl) and a drug solution (10 µl) were added into each well of a plastic 24-well culture plate (Falcon), for culturing at 37 °C in 5 % CO2/95 % air for 24 hours, and then, the resulting culture was centrifuged (300 ×g, 5 minutes, 20°C) to recover the supernatant, which was defined as a cytokine assay sample. […] For experiments, furthermore, three dishes per each group were used. The osteoblast recovered by the method of the Experimental Example 1 was used. […] An enhancer reagent (100 µl) was added, for agitation at room temperature for 5 minutes, to determine the fluorescence intensity with a time-resolved fluorometer. Based on a preliminarily prepared standard curve, PKA activity was calculated.

[4] = system: IL-1β; assay: IL-1β release from murine osteoblast (culture supernatant cytokine assay); details: 24 hours culture
Procedure: Under anesthesia with pentobarbital sodium (25 mg/kg, intraperitoneal administration), postcava was cut to bleed and kill the animal to death. Then, bilateral femoral bones were resected. This bone was cut with a pair of bone scissors, to remove the bone marrow with a micro-loop. The inner face of the bone was rubbed off with a sharp blade. The resulting matter was agitated in a 10 % collagenase solution (Nitta gelatin) at 37 °C for 20 minutes, and to the resulting mixture was added a culture medium (an MEM culture medium supplemented with 10 % charcoal-treated bovine fetal serum; manufactured by Nissui Pharmaceutical, Co. Ltd.) prior to centrifugation (300×g, 5 minutes and 20 °C). The resulting cells were dispersed in a fresh culture medium and then inoculated on a plastic culture dish (diameter of 35 mm, Primaria (Falcon)). […] Osteoblast was identified by using alkali phosphatase staining as an osteoblast marker. For recovering osteoblast from an animal after ovariectomy, ovariectomy was carried out at age 11 weeks, and the animal was fed for the following 4 weeks, prior to the same treatment.
Dienogest as a test substance was dissolved and diluted in dimethylsulfoxide (DMSO, manufactured by Wako Pure Chemical Industries, Ltd.) for use. As a control substance, furthermore, MPA and danazol were used after they were dissolved and diluted in DMSO. DMSO was used as a solvent control.
The final concentrations of the drug were 10^-11, 10^-10 and 10^-9 M. For experiments, furthermore, three dishes per each group were used.
Using SMRART ™ (Pharmacia Biotech, Uppsala, Sweden), the supernatant was concentrated by about 10 fold, after the termination of culturing. The level of cytokine in the sample was assayed by using assay kits of murine IL-1β, IL-6 and TNF-α (Cytoscreen™, BioSource International, Camarillo, Calif. CA, USA) and europium-labeled streptoavidin (Pharmacia Biotech).

[5] = osteoblast of non-treated mouse, 10^-9 M, control 23.5
[6] = osteoblast of non-treated mouse, 10^-10 M, control 23.5
[7] = osteoblast of non-treated mouse, 10^-11 M, control 23.5
[8] = osteoblast of ovariectomized mouse, 10^-9 M, control 45.0
[9] = osteoblast of ovariectomized mouse, 10^-10 M, control 45.0
[10] = osteoblast of ovariectomized mouse, 10^-11 M, control 45.0
[11] = osteoblast of non-treated mouse, 10^-9 M, control 13.9
[12] = osteoblast of non-treated mouse, 10^-10 M, control 13.9
[13] = osteoblast of non-treated mouse, 10^-11 M, control 13.9
[14] = osteoblast of ovariectomized mouse, 10^-9 M, control 26.3
[15] = osteoblast of ovariectomized mouse, 10^-10 M, control 26.3
[16] = osteoblast of ovariectomized mouse, 10^-11 M, control 26.3
[17] = doses of 10^-11, 10^-10 and 10^-9 M

Compound | TNF-α [1, 5] | TNF-α [1, 6] | TNF-α [1, 7] | TNF-α [1, 8] | TNF-α [1, 9] | TNF-α [1, 10] | frequency of apoptosis occurrence in murine osteoclast (number of apoptosis-positive cells) ([2]; 10^-9 M) | frequency of apoptosis occurrence in murine osteoclast (number of apoptosis-positive cells) ([2]; 10^-10 M) | frequency of apoptosis occurrence in murine osteoclast (number of apoptosis-positive cells) ([2]; 10^-11 M) | PKA activity in the murine osteoblast ([3]; at a concentration of 10^-9 M or more) | IL-1β [4, 11] | IL-1β [4, 12] | IL-1β [4, 13] | IL-1β [4, 14] | IL-1β [4, 15] | IL-1β [4, 16] | PKA activity in the murine osteoblast [3, 17]
C[C@]12CCC3=C4CCC(=O)C=C4CC[C@H]3[C@@H]1CC[C@@]2(O)CC#N [Dienogest, 17 α-cyanomethyl-17β-hydroxy-estra-4,9(10)-dien-3-one] | 14.8** pg/ml | 24.4 pg/mL | 24.7 pg/mL | 22.3** pg/ml | 29.8** pg/ml | 44.4 pg/mL | 16.3** | 5.0 | 3.7 | significantly enhanced | 12.0** pg/ml | 13.7 pg/mL | 14.4 pg/mL | 23.1** pg/ml | 23.8* pg/ml | 26.1 pg/mL | 
CC(=O)O[C@]1(C(C)=O)CC[C@H]2[C@@H]3C[C@H](C)C4=CC(=O)CC[C@]4(C)[C@H]3CC[C@@]21C [MPA, medroxyprogesterone acetate] | 31.4** pg/ml | 25.3 pg/mL | 25.5 pg/mL | 47.6* pg/ml | 46.1 pg/mL | 44.6 pg/mL | 5.0 | 3.7 | 4.0 |  | 16.9* pg/ml | 14.4 pg/mL | 13.3 pg/mL | 30.2** pg/ml | 25.9 pg/mL | 26.3 pg/mL | did not affect
C#C[C@]1(O)CC[C@H]2[C@@H]3CCC4=Cc5oncc5C[C@]4(C)[C@H]3CC[C@@]21C [Danazol, danazol] | 26.1** pg/ml | 24.3 pg/mL | 24.0 pg/mL | 47.5** pg/ml | 45.3 pg/mL | 45.3 pg/mL | 3.3 | 3.7 | 4.0 |  | 15.4* pg/ml | 13.8 pg/mL | 13.6 pg/mL | 28.1** pg/ml | 26.0 pg/mL | 25.2 pg/mL | did not affect
